Structures are written as SMILES.

Our source for the solubility and EC50 values is patent US20250382344A1, “Soluble GLP1/GIP/NPY2 Receptor Triple Agonists” (Boehringer Ingelheim International GmH, priority 2024, published 2025).

Data set [1] is described as follows: Solubility in 0.1 M phosphate buffer at pH 7. Format: physicochemical. Particulars: 0.1 M phosphate buffer at pH 7, 10 mg/mL final peptide concentration, shaking 2 hours at room temperature, peptides as TFA-salts, measured sample pH 6.5-7.0; for solubility: read-out: Solubility. The procedure:
Peptides (as TFA-salts) were weighed out in a filter unit (Mini-UniPrep Syringeless Filter 0.45 μm, Whatman PVDF), and 0.1 M phosphate buffer at pH 7 was added to achieve 10 mg/mL final peptide concentration. The peptides were dissolved by shaking the filter units horizontally at 600 rpm for 2 hours at room temperature. Samples were then filtered to remove any insoluble particles. Controls were prepared by weighing out the corresponding peptide solid material and dissolving it in an appropriate vehicle (e.g. ACN:H2O) to a final concentration of 1 mg/mL. Both, the control and sample were analyzed by reversed phase chromatography. The area under the peak of the sample was compared to the control and the solubility was calculated based on that ratio. The pH was measured and recorded for each sample.

Data set [2] addresses T1, hGIPR (Homo sapiens, UniProt P48546).
T1 construct: expressed in transfected cells; host or cells: CHO CRE-luciferase reporter cells
T1 sequence (P48546 22-466): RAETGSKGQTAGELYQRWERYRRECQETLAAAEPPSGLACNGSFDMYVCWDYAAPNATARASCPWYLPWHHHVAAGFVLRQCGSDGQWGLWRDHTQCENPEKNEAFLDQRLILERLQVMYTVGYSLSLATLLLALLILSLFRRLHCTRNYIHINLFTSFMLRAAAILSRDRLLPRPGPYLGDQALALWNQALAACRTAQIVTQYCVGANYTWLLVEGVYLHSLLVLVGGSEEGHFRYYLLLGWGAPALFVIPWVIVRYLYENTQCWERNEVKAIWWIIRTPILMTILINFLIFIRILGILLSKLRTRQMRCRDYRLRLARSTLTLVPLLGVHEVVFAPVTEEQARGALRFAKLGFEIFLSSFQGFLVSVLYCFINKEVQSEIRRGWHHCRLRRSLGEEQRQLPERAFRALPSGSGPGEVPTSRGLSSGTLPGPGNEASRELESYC
Briefly: hGIPR CreLuc assay in 0.5% and 100% plasma (CHO CRE-luciferase reporter cells). To be noted: 0.5% human plasma, read-out: hGIPR 0.5% hP. Format: cell-based. An excerpt:
CHO and HEK-293 recombinant cell lines express a luciferase reporter gene under control of the CAMP responsive element (CRE). As a second recombinant protein the GLP-1 and NPY2 receptors were expressed in the reporter gene HEK cells, and the GIP receptor was expressed in the reporter gene CHO cells, respectively. Stimulation of these recombinant cells with an agonist leads to an increase of intracellular CAMP levels. In the presence of CAMP, the transcription factor CRE binding protein (CREB) binds to the CRE and to the CREB binding protein (CBP), which leads to transcription of the luciferase reporter gene. Peptides upon serial-dilution in 100% DMSO were transferred into 384-well assay plates with 5 μl pre-dispensed assay buffer (1×HBSS, 20 mM HEPES, pH7.4 supplemented with 0.5% human plasma) using acoustic dispensing on a Labcyte ECHO. Cryo-preserved transgenic reporter gene cells were thawed in assay buffer. 20 μl (10.000 cells/well) were added to the plate with the peptides and incubated for 4 hours at 37° C. in a humidified incubator. Following incubation, assay plates are equilibrated to room temperature, followed by addition of 25 μl of Bright-Glo™ Luciferase reagent, incubation at room temperature for 10 minutes and analysis of luminescence (Envision Reader). […] EC50 values were calculated by non-linear regression using sigmoid concentration-response with variable slope.
The same assays were run in the presence of 100% plasma with no additional buffer constituents.

As for `CC[C@H](C)[C@H](NC(=O)[C@H](CCCCN)NC(=O)[C@H](CCC(=O)O)NC(=O)[C@H](CC(C)C)NC(=O)C(C)(C)NC(=O)[C@@H](NC(=O)[C@H](CO)NC(=O)[C@H](Cc1ccc(O)cc1)NC(=O)[C@H](CC(=O)O)NC(=O)[C@H](CO)NC(=O)[C@@H](NC(=O)[C@H](Cc1ccccc1)NC(=O)[C@@H](NC(=O)CNC(=O)[C@H](CCC(=O)O)NC(=O)C(C)(C)NC(=O)[C@@H](N)Cc1ccc(O)cc1)[C@@H](C)O)[C@@H](C)O)[C@@H](C)CC)C(=O)N[C@@H](C)C(=O)N[C@@H](CCC(N)=O)C(=O)NC(C)(C)C(=O)N[C@@H](C)C(=O)N[C@@H](Cc1ccccc1)C(=O)N[C@H](C(=O)N[C@@H](CCCNC(=N)N)C(=O)N[C@@H](Cc1c[nH]cn1)C(=O)N[C@@H](CC(C)C)C(=O)N[C@H](C(=O)N[C@@H](CC(N)=O)C(=O)N[C@@H](CCCCNC(=O)[C@@H](N)CCCCNC(=O)CC[C@H](NC(=O)CC[C@H](NC(=O)CC[C@H](NC(=O)CC[C@H](NC(=O)CC[C@H](NC(=O)CC[C@H](NC(=O)CCCCCCCCCCCCCCCCC(=O)O)C(=O)O)C(=O)O)C(=O)O)C(=O)O)C(=O)O)C(=O)O)C(=O)NC(C)(C)C(=O)N[C@H](C(=O)N[C@@H](CCCNC(=N)N)C(=O)N[C@@H](CCC(N)=O)C(=O)N[C@@H](CCCNC(=N)N)C(=O)N[C@@H](Cc1ccc(O)cc1)C(N)=O)[C@@H](C)O)[C@@H](C)CC)C(C)C` [Compound 24, Y-Aib-E-G-T-F-T-S-D-Y-S-I-Aib-L-E-K-I-A-Q-Aib-A-F-V-R-H-L-I-N-K(1,3)-Aib-T-R-Q-R-Y-NH2.C18DA-gGlu-gGlu-gGlu-gGlu-gGlu-gGlu-eLys(1,2)], the solubility in data set [1] is 8100 µg/mL.
The same measure, in the same setting: the figure for `CC[C@H](C)[C@H](NC(=O)[C@H](CC(C)C)NC(=O)[C@H](Cc1c[nH]cn1)NC(=O)[C@H](CCCNC(=N)N)NC(=O)[C@@H](NC(=O)[C@H](Cc1ccccc1)NC(=O)[C@H](C)NC(=O)C(C)(C)NC(=O)[C@H](CCC(N)=O)NC(=O)[C@H](C)NC(=O)[C@H](CCC(=O)O)NC(=O)[C@H](CCCCN)NC(=O)[C@H](CCC(=O)O)NC(=O)[C@H](CC(C)C)NC(=O)C(C)(C)NC(=O)[C@@H](NC(=O)[C@H](CO)NC(=O)[C@H](Cc1ccc(O)cc1)NC(=O)[C@H](CC(=O)O)NC(=O)[C@H](CO)NC(=O)[C@@H](NC(=O)[C@H](Cc1ccccc1)NC(=O)[C@@H](NC(=O)CNC(=O)[C@H](CCC(=O)O)NC(=O)C(C)(C)NC(=O)[C@@H](N)Cc1ccc(O)cc1)[C@@H](C)O)[C@@H](C)O)[C@@H](C)CC)C(C)C)C(=O)N[C@@H](CC(N)=O)C(=O)N[C@@H](CCCCNC(=O)[C@@H](N)CCCCNC(=O)[C@H](CCC(=O)O)NC(=O)CC[C@H](NC(=O)CC[C@H](NC(=O)CC[C@H](NC(=O)CC[C@H](NC(=O)CC[C@H](NC(=O)CCCCCCCCCCCCCCCCCCC(=O)O)C(=O)O)C(=O)O)C(=O)O)C(=O)O)C(=O)O)C(=O)NC(C)(C)C(=O)N[C@H](C(=O)N[C@@H](CCCNC(=N)N)C(=O)N[C@@H](CCC(N)=O)C(=O)N[C@@H](CCCNC(=N)N)C(=O)N[C@@H](Cc1ccc(O)cc1)C(N)=O)[C@@H](C)O` [Compound 28, Y-Aib-E-G-T-F-T-S-D-Y-S-I-Aib-L-E-K-E-A-Q-Aib-A-F-V-R-H-L-I-N-K(1,3)-Aib-T-R-Q-R-Y-NH2.C20DA-gGlu-gGlu-gGlu-gGlu-gGlu-gGlu-eLys(1,2)] is 10000 µg/mL.
As for `CC[C@H](C)[C@H](NC(=O)[C@H](CC(C)C)NC(=O)[C@H](Cc1c[nH]cn1)NC(=O)[C@H](CCCNC(=N)N)NC(=O)[C@@H](NC(=O)[C@H](Cc1ccccc1)NC(=O)[C@H](C)NC(=O)C(C)(C)NC(=O)[C@H](CCC(N)=O)NC(=O)[C@H](CCC(=O)O)NC(=O)[C@H](CCC(N)=O)NC(=O)[C@H](CCCCN)NC(=O)[C@H](CCC(=O)O)NC(=O)[C@H](CC(C)C)NC(=O)C(C)(C)NC(=O)[C@@H](NC(=O)[C@H](CO)NC(=O)[C@H](Cc1ccc(O)cc1)NC(=O)[C@H](CC(=O)O)NC(=O)[C@H](CO)NC(=O)[C@@H](NC(=O)[C@H](Cc1ccccc1)NC(=O)[C@@H](NC(=O)CNC(=O)[C@H](CCC(=O)O)NC(=O)C(C)(C)NC(=O)[C@@H](N)Cc1ccc(O)cc1)[C@@H](C)O)[C@@H](C)O)[C@@H](C)CC)C(C)C)C(=O)N[C@@H](CC(N)=O)C(=O)N[C@@H](CCCCNC(=O)[C@@H](N)CCCCNC(=O)CC[C@H](NC(=O)CC[C@H](NC(=O)CC[C@H](NC(=O)CC[C@H](NC(=O)CC[C@H](NC(=O)CC[C@H](NC(=O)CCCCCCCCCCCCCCCCC(=O)O)C(=O)O)C(=O)O)C(=O)O)C(=O)O)C(=O)O)C(=O)O)C(=O)NC(C)(C)C(=O)N[C@H](C(=O)N[C@@H](CCCNC(=N)N)C(=O)N[C@@H](CCC(N)=O)C(=O)N[C@@H](CCCNC(=N)N)C(=O)N[C@@H](Cc1ccc(O)cc1)C(N)=O)[C@@H](C)O` [Compound 36, Y-Aib-E-G-T-F-T-S-D-Y-S-I-Aib-L-E-K-Q-E-Q-Aib-A-F-V-R-H-L-I-N-K(1,3)-Aib-T-R-Q-R-Y-NH2.C18DA-gGlu-gGlu-gGlu-gGlu-gGlu-gGlu-eLys(1,2)], in data set [1], the solubility at 2 h amounted to 5000 µg/mL.
Consider `CC[C@H](C)[C@H](NC(=O)[C@H](CO)NC(=O)[C@H](Cc1ccc(O)cc1)NC(=O)[C@H](CC(=O)O)NC(=O)[C@H](CO)NC(=O)[C@@H](NC(=O)[C@H](Cc1ccccc1)NC(=O)[C@@H](NC(=O)CNC(=O)[C@H](CCC(=O)O)NC(=O)C(C)(C)NC(=O)[C@@H](N)Cc1ccc(O)cc1)[C@@H](C)O)[C@@H](C)O)C(=O)NC(C)(C)C(=O)N[C@@H](CC(C)C)C(=O)N[C@@H](CCC(=O)O)C(=O)N[C@@H](CCCCN)C(=O)N[C@@H](CCC(N)=O)C(=O)N[C@@H](C)C(=O)N[C@@H](CCC(N)=O)C(=O)NC(C)(C)C(=O)N[C@@H](C)C(=O)N[C@@H](Cc1ccccc1)C(=O)N[C@H](C(=O)N[C@@H](CCCNC(=N)N)C(=O)N[C@@H](Cc1c[nH]cn1)C(=O)N[C@@H](CC(C)C)C(=O)N[C@@H](CC(C)C)C(=O)N[C@@H](CC(N)=O)C(=O)N[C@@H](CCCCNC(=O)[C@@H](N)CCCCNC(=O)CC[C@H](NC(=O)CC[C@H](NC(=O)CC[C@H](NC(=O)CC[C@H](NC(=O)CC[C@H](NC(=O)CC[C@H](NC(=O)CCCCCCCCCCCCCCCCCCC(=O)O)C(=O)O)C(=O)O)C(=O)O)C(=O)O)C(=O)O)C(=O)O)C(=O)NC(C)(C)C(=O)N[C@H](C(=O)N[C@@H](CCCNC(=N)N)C(=O)N[C@@H](CCC(N)=O)C(=O)N[C@@H](CCCNC(=N)N)C(=O)N[C@@H](Cc1ccc(O)cc1)C(N)=O)[C@@H](C)O)C(C)C` [Compound 80, Y-Aib-E-G-T-F-T-S-D-Y-S-I-Aib-L-E-K-Q-A-Q-Aib-A-F-V-R-H-L-L-N-K(1,3)-Aib-T-R-Q-R-Y-NH2.C20DA-gGlu-gGlu-gGlu-gGlu-gGlu-gGlu-eLys(1,2)], for which the EC50 in data set [2] was found to be 1.7 nM.
